Test results taken from US10959995B2, “Methods of acute restoration of vascular compliance” (Alumend, LLC, priority 2013, dated 2021).
Entries after “also recorded” stand apart in the source; their conditions may differ.

Key:
artery = experiment: Arterial compression with other photoactivated material; details: FIG. 13
Method: Singlet oxygen generating species, such as Rose Bengal, riboflavin, and methylene blue were tested to determine if they would be effective at arterial compression.

[1] = Storage stability of naphthalimide dimer (solution and powder); type: physicochemical
Description: A preparative HPLC approach was used to isolate and specifically purify the compound of formula (V) dimer from the compound of formula (V) naphthalimide product produced from the ethanol crystallization. The HPLC method used was based on the purity method outlined above; however, method modifications were made to replace acetonitrile with ethanol and TFA with acetic acid in the mobile phase. The preparative separation utilized a C18 column (X-bridge, 10 μm, 19×250 mm, Waters). The mobile phase consisted of mobile phase A, 0.1% acetic acid (aq), and mobile phase B, 9:1 ethanol:water (0.1% v/v acetic acid). The column was pre-equilibrated at a starting mobile phase of 95% A:5% B for 20 minutes, at the start of the gradient was a 2 minute hold followed by a linear gradient to 90% B at 40 minutes and a 10 minute hold. An injection volume of 8.5 mL (12 mg/mL purified compound of formula (V)) and flow rate of 8.5 mL/minute were used as well as a detector wavelength of 440 nm. The compound of formula (V) fractions were collected and analyzed using the analytical purity method presented above. Fractions meeting a minimum purity criterion were combined and the solvent driven off by rotovapping the solution to dryness. […] Finally the product was quantitatively transferred from the round bottom flask to a freeze drying flask by dissolving the product in a minimal amount of deionized water. […]

[2] = system: hard (calcified) and soft plaque in diseased arteries; experiment: Plaque penetration: diseased arteries soaked with plaque softening composition, light activated, visual and histological examination; parameters: species or system human
Method: Diseased arteries were obtained from limb amputations (leg) due to advanced Periperal Arterial Disease (PAD) from patients at Avera McKennan hospital. The received arteries were evaluated and chosen such that the diseased section was of reasonable size to accommodate the treatment catheter balloon length being used. The catheter balloon diameter used was also matched to the diameter of the artery and capable of achieving a 1:1.25 (ratio of artery diameter to balloon diameter) overstretch. The artery was laid in a petri dish and an angioplasty balloon was inserted and inflated for 60 seconds to impart the desired overstretch. While the angioplasty balloon was inflated a permanent marker was used to define the treatment zone (where the overstretch was imparted by the balloon) on the outer surface of the artery. The angioplasty balloon was deflated and removed. The inner lumen of the diseased artery was exposed to a plaque softening composition comprising a compound of formula (V) naphthalimide formulation (2 mg/mL in phosphate buffered saline, pH=7.4) for a period of 5 minutes. For the purpose of filling the artery, one end was clamped, the artery was held upright and a syringe was used to dispense the naphthalimide solution until the inner lumen was filled. The open end of the artery was then clamped and the soaking period of 5 minutes commenced. […] Arteries were cut open lengthwise and the treated section was evaluated by visual examination.
Prior to cutting the artery for visual examination samples from the treated and untreated sections were collected and preserved for histological examination. […] After this time, samples were stored in a −80° C. freezer until ready for further analysis. […] The crystalline nature of hard plaque is readily visible without staining. Under this magnification the crystalline structure of the calcific plaque was readily visible, as shown in FIG. 8 the dark area between the two lighter colored areas of the media. […]

[3] = system: hard and soft plaque from common and lower femoral artery; experiment: Tissue immersion: plaque hardness by manual manipulation with forceps; parameters: species or system human; details: PBS pH 7.4
Description: A sample of human tissue from the common and lower femoral artery was received. It was stored in saline and refrigerated until use. Based upon visual and tactile observations, the arteries were approximately 7-8 mm in diameter and contained evidence of both hard and soft plaque. The soft plaque has a yellow fatty appearance that is distinguishable from the vessel wall. The hard plaque presents itself as hard pieces of material that can be pulled (with a forceps) from the soft plaque. Sections of the artery suitable for catheter work were segregated and stored in phosphate buffered saline (PBS), pH=7.4. From the remaining arterial sections, pieces of tissue containing both hard and soft plaque were removed. These pieces were either placed in a solution of PBS (pH=7.4), or dimeric naphthalimide, such as a compound of formula (V) (which is in PBS, pH=7.4). Prior to immersion in either solution the relative hardness of the plaque was evaluated via manual manipulation with a forcep. After a 5 minute soak in solution (typical exposure time), no difference in the samples soaked in PBS was noticed (control). […] The samples were then left in their respective solutions for an additional 90 minutes.

artery tissue = experiment: Angioplasty with plaque-softening composition and photoactivation: fissure observation; parameters: species or system human
Method: The tissue was an artery approximately 7.4 mm in diameter. An Ultra-thin SDS 8 mm×30 mm catheter was used to dilate the artery to 7.55 mm (approximately a 2% overstretch). A fissure or a possible dissection running down the length of the tissue sample was observed.
A section (6.5 cm in length) of artery was exposed to the composition for 5 minutes. An 80 mm catheter was used to impart a 2% overstretch to the artery. The angioplasty was followed by photoactivation at 1800 mW for 60 seconds using the same 80 mm catheter with a 60 mm light fiber centered in the catheter.
A catheter with an 80 mm treatment zone balloon was used however the photoactivating light fiber was only 60 mm in length. During activation it was noted that the light fiber was shifted distally in the catheter. This meant that the distal end of the artery was receiving photoactivation, however, the proximal end received little or no light. A fissure down the length of the artery was again observed.

[4] = 2 mg/mL in PBS pH 7.4, 5 minute soak, 447 nm light activation 60 seconds

SMILES: O=C([O-])c1c(Cl)c(Cl)c(Cl)c(Cl)c1-c1c2cc(I)c(=O)c(I)c-2oc2c(I)c([O-])c(I)cc12.[Na+].[Na+] [Rose Bengal]
- efficacy at arterial compression (artery): No efficacy

SMILES: NCCOCCOCCNc1ccc2c3c(cccc13)C(=O)N(CCOCCOCCN1C(=O)c3cccc4c(NCCOCCOCCN)ccc(c34)C1=O)C2=O [compound of formula (V)]
- degradation of dimer in powder form ([1]; periods exceeding one year of storage in a dessicator at room temperature): no evidence of degradation
- stability of dimer solution ([1]; solution at pH 7.4, periods up to one year): excellent stability
- tacking of intimal flaps [2, 4]: definitive observation of tacking of intimal flaps
- visual/tactile observation of plaque in treated region [2, 4]: apparent softened plaque; also recorded: looked and felt softer and creamier
- calcium crystals in treated sections under microscope ([2]; treated vs untreated sections of artery): less evidence of calcium crystals
- plaque hardness after soak ([3]; 5 minute soak in solution): slight softening
- plaque hardness after soak ([3]; additional 90 minutes in solution): significantly softer and more pliable
- repair of fissure (artery tissue; angioplasty then composition, distal region with adequate photoactivation): there appeared to be a seam indicating repair
- fissure in opened artery (artery tissue; composition 5 minutes, then angioplasty 2% overstretch, photoactivation 1800 mW 60 seconds): no fissure observed

SMILES: CN(C)c1ccc2nc3ccc(=[N+](C)C)cc-3sc2c1 [methylene blue]
- efficacy at arterial compression (artery): No efficacy

SMILES: Cc1cc2nc3c(=O)[nH]c(=O)nc-3n(C[C@H](O)[C@H](O)[C@H](O)CO)c2cc1C [riboflavin]
- efficacy at arterial compression (artery): No efficacy
